{"source": "paper PMC5829162", "about": "“Rational Design, Synthesis and Biological Evaluation of Pyrimidine-4,6-diamine derivatives as Type-II inhibitors of FLT3 Selective Against c-KIT” (Scientific Reports, 2018)", "key": {"Aurora B": {"target": "Aurora B (Homo sapiens, UniProt Q96GD4)", "sequence (Q96GD4 whole entry)": "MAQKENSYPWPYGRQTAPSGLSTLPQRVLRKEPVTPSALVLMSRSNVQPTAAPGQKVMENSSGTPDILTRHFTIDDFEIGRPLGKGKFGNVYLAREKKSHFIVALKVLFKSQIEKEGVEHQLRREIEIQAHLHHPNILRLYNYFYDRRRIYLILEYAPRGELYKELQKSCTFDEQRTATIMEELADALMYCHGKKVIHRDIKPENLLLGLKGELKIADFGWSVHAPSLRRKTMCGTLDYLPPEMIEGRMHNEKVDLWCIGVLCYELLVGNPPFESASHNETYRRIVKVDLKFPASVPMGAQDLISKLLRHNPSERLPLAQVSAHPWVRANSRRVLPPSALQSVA", "assay": "Biochemical kinase selectivity assay, Aurora B"}, "RETV804L": {"target": "T1, RETV804L (Homo sapiens, UniProt P07949, V804L)", "T1 sequence (P07949 658-1114 V804L limits assumed)": "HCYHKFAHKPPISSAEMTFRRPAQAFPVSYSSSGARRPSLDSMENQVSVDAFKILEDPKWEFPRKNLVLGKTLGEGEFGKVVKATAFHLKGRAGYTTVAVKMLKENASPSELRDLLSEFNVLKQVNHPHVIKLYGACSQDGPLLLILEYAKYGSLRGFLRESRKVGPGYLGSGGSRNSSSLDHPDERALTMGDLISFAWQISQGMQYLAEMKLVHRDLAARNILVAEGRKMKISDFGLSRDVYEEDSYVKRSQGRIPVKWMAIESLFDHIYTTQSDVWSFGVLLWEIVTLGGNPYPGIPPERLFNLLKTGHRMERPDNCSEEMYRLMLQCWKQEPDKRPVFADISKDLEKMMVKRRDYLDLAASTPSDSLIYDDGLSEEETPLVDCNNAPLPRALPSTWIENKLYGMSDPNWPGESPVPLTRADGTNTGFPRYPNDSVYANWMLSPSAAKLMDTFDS", "assay": "Biochemical kinase selectivity assay, RET V804L"}, "RET": {"target": "RET (Homo sapiens, UniProt P07949)", "sequence (P07949 29-1114, species assumed)": "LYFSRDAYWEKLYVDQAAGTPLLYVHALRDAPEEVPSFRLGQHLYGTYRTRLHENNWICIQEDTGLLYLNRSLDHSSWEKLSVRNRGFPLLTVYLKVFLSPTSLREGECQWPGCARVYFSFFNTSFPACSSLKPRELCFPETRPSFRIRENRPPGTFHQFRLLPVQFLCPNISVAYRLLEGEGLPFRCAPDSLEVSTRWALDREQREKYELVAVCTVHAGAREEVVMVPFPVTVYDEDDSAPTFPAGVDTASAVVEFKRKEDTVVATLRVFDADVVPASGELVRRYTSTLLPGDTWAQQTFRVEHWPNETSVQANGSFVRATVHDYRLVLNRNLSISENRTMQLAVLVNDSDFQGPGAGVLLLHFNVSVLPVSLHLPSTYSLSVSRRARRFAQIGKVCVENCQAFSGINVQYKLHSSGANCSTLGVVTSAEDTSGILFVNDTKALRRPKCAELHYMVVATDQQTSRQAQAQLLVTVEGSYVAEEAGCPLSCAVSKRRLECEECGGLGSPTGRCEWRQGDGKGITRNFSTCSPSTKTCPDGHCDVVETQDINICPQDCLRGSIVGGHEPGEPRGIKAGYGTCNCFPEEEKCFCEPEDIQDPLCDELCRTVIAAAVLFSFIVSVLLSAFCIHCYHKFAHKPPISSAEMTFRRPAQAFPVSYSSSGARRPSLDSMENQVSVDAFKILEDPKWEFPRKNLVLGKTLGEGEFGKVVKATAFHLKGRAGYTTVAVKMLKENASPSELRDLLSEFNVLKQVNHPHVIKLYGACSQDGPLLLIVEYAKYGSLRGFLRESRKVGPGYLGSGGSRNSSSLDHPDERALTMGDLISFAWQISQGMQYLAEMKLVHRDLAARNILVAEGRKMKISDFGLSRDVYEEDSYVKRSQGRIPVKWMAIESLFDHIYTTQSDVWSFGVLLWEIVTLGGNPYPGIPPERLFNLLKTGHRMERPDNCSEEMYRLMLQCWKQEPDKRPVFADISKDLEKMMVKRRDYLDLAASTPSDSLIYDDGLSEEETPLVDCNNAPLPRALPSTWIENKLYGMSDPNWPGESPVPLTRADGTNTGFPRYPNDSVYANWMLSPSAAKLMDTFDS", "assay": "Biochemical kinase selectivity assay, RET", "details": "in vitro kinase assay; read-out: RET IC50 (nM) ± SD"}, "Molm14^F691L": {"system": "Molm14^F691L", "assay": "Cell proliferation (CellTiter-Glo, 48 h), Molm14 F691L", "assay_type": "cell-based", "details": "for GI50: Homo sapiens, MOLM-14, Molm14^F691L, 48 hours", "description": "(§1) Stable BaF3 populations expressing activated FLT3 were generated by retroviral spinfection with the appropriate mutated plasmid followed by selection and growth factor withdrawal as previously described. The BaF3 cell line was originally obtained from the laboratory of Charles Sawyers and has not been authenticated. MV411 and Molm14 cells were obtained from the laboratory of Scott Kogan and authenticated by Promega STR analysis in June 2013. All cell lines were mycoplasma-free. Cells were incubated with compounds for 48 hours and proliferation was assessed using CellTiter-Glo (Promega; Madison, WI) according to the manufacturer’s recommendation on a SpectraMax M3 microplate reader using SpectraMax Software (Molecular Devices; Sunnyvale, CA). All cell viability data shown is reflective of experiments performed a minimum of three times. […]\n(§2) S13. Cell Cultures: Stable BaF3 populations expressing activated FLT3 were generated by retroviral spinfection with the appropriate mutated plasmid followed by selection and growth factor withdrawal as previously described .4 The BaF3 cell line was originally obtained from the laboratory of Charles Sawyers and has not been authenticated. MV411 and Molm14 cells were obtained from the laboratory of Scott Kogan and authenticated by Promega STR analysis in June\n(§3) 2013. All cell lines were mycoplasma -free. Cells were incubated with compounds for 48 hours and proliferation was assessed using CellTiter -Glo (Promega; Madison, WI) according to the manufacturer’s recommendation on a SpectraMax M3 microplate reader using SpectraMax Software (Molecular Devices; Sunnyvale, CA). All cell viability data shown is reflective of experiments performed a minimum of three times."}, "Molm14^D835Y": {"system": "Molm14^D835Y", "assay": "Cell proliferation (CellTiter-Glo, 48 h), Molm14 D835Y", "assay_type": "cell-based", "details": "for GI50: Homo sapiens, MOLM-14, Molm14^D835Y, 48 hours", "description": "as §1, §2, §3"}}}
{"smiles": "Cn1nc(C(C)(C)C)cc1NC(=O)Cc1ccc(Nc2cc(Nc3ccc(S(C)(=O)=O)cc3)ncn2)cc1", "note": "[13a, 2-(4-(6-(4-(Methylsulfonyl)phenylamino)pyrimidin-4-ylamino)phenyl)-N-(3-tert-butyl-1-methyl-1H-pyrazol-5-yl)acetamide]", "values": [{"measurement": "inhibition at 20 µM", "setting": "Aurora B", "result": 79.8, "unit": "%"}, {"measurement": "melting point", "result": "134 to 136", "unit": "°C"}, {"measurement": "inhibition at 20 µM", "setting": "RETV804L", "result": 62.3, "unit": "%"}, {"measurement": "IC50", "setting": "RET", "result": "4710 ± 342", "unit": "nM"}, {"measurement": "GI50", "setting": "Molm14^F691L", "result": 1340, "unit": "nM"}, {"measurement": "fold reduction in cellular activity against Molm14^F691L", "setting": "Molm14^F691L; gatekeeper mutation, relative to the parental FLT3-ITD cells", "result": "~ 10 fold"}, {"measurement": "GI50", "setting": "Molm14^D835Y", "result": 1840, "unit": "nM"}, {"measurement": "fold reduction in cellular activity against Molm14^D835Y", "setting": "Molm14^D835Y; relative to the parental FLT3-ITD cells", "result": "~ 10 fold"}]}
{"smiles": "CC(C)(C)c1cc(NC(=O)Cc2ccc(Nc3cc(Nc4ccc(S(C)(=O)=O)cc4)ncn3)cc2)no1", "note": "[13k, 2-(4-(6-(4-(Methylsulfonyl)phenylamino)pyrimidin-4-ylamino)phenyl)-N-(5-tert-butylisoxazol-3-yl)acetamide]", "values": [{"measurement": "inhibition at 20 µM", "setting": "Aurora B", "result": 71.9, "unit": "%"}, {"measurement": "melting point", "result": "168 to 170", "unit": "°C"}, {"measurement": "inhibition at 20 µM", "setting": "RETV804L", "result": 40.8, "unit": "%"}, {"measurement": "IC50", "setting": "RET", "result": 1660, "unit": "nM"}, {"measurement": "GI50", "setting": "Molm14^F691L", "result": 2140, "unit": "nM"}, {"measurement": "GI50", "setting": "Molm14^D835Y", "result": 2610, "unit": "nM"}]}
